# Source: PMC11809180, “RA-PR058, a novel ramalin derivative, reduces BACE1 expression and phosphorylation of tau in Alzheimer’s disease mouse models” (Animal Cells and Systems, 2025)
# Columns and labels:
# BACE1 [1] = test: BACE1 expression in SH-SY5Y cells under H2O2 oxidative stress (western blot); type: cell-based, human; settings: 10 μM RA-PR058 24 hours, then 200 μM H2O2 4 hours, normalized with β-Actin, n = 4
# Description: Human neuroblastoma cell line, SH-SY5Y were maintained in DMEM (Welgene) supplemented with 10% fetal bovine serum (FBS, Gibco) and 1% penicillin/streptomycin (Capricorn) at 37 °C in a humidified atmosphere containing 5% CO2. […] [2024]). Samples for western blot analysis were prepared as previously described (Gwon et al. [2012]). Cells were lysed with T-PER^TM Tissue Protein Extraction Reagent (Thermo Fisher Scientific) supplemented with protease/phosphatase inhibitor cocktail (Thermo Fisher Scientific) and incubated at 4 °C for 10 minutes. After incubation, lysed samples were centrifuged at 13,000 x rpm for 10 minutes at 4 °C and the supernatant were used for western blot analysis. The cortices and hippocampi tissues were homogenized using RIPA lysis buffer (Millipore) supplemented with protease/phosphatase inhibitor cocktail and incubated at 4 °C for 30 minutes. Following incubation, lysed tissues were centrifuged at 13,000 x rpm for 30 minutes at 4 °C and the supernatant were used for western blot analysis. Protein concentrations were measured using Pierce^TM BCA Protein Assay Kits (Thermo Fisher Scientific). Equal amounts of proteins were mixed with NuPAGE^TM LDS Sample Buffer (Invitrogen) and 5% 2-mercaptoethanol (Sigma) and then boiled at 95 °C for 5 minutes. […] Protein bands were quantified using ImageJ (NIH).
# BACE1 [2] = test: BACE1 expression in brain of 3xTg-AD mice (western blot); type: in vivo, mouse; settings: 20 mg/kg oral daily 4 weeks
# Description: 3xTg-AD (B6;129-Tg(APPSwe,tauP301L)1Lfa Psen1^tm1Mpm/Mmjax) mice and their littermate wild-type (WT) mice were used in this study. Each experimental group consisted of 4–8 mice, with groups designated as WT, 3xTg-AD Vehicle, and 3xTg-AD RA-PR058. All mice were maintained in a 12-hour light/dark cycle with free access to food and water. 7-month-old age of mice were administered with 20 mg/kg of RA-PR058 orally once a day for 1 month followed by the elevated plus maze test. All animal experimental procedures were approved by the Institutional Animal Care and Use Committee of Sungkyunkwan University (SKKUIACUC2022-10-41-1).
# After EPM was conducted, mice were sacrificed, and brain tissues were collected as previously described (Park et al. [2021]). Mice were anesthetized by injecting Zoletil (Virbac) and Rompun (Bayer) intraperitoneally. After mice were anesthetized, they were perfused with phosphate-buffered saline (PBS). Then, brains were extracted and cut into two hemispheres; one hemisphere was preserved in 4% paraformaldehyde and the other was dissected into the cortex and hippocampus. […]
# Samples for western blot analysis were prepared as previously described (Gwon et al. [2012]). […] Protein concentrations were measured using Pierce™ BCA Protein Assay Kits (Thermo Fisher Scientific). […] Protein bands were quantified using ImageJ (NIH).
compound,measurement,setting,value
"Cl.N[C@@H](CCC(=O)NNc1ccccc1F)C(F)F [RA-PR058, (S)-4-amino-5,5-difluoro-N'-(2-fluorophenyl)pentanehydrazide hydrochloride]",H2O2-induced increase in BACE1 expression,BACE1 [1],markedly attenuated
same,Cortical BACE1 expression,"BACE1 [2]; cortex, normalized with β-Actin",significantly reduced
same,BACE1 expression in the hippocampus,BACE1 [2]; hippocampus,did not affect
